# Test system: Ctenocephalides felis
# Assay: Ctenocephalides felis oral test
# Type: in vivo
# Conditions: application rate 100 ppm in citrated cattle blood; after 2 days
# Method: Ctenocephalides felis—Oral Test
# (§1) Solvent: dimethyl sulphoxide
# For the purpose of producing an appropriate active ingredient formulation, 10 mg of active ingredient are mixed with 0.5 ml of dimethyl sulphoxide. Dilution with citrated cattle blood gives the desired concentration.
# About 20 unfed adult cat fleas (Ctenocephalides felis) are placed into a chamber which is closed at the top and bottom with gauze. A metal cylinder whose bottom end is closed with parafilm is placed onto the chamber. The cylinder contains the blood/active ingredient preparation, which can be imbibed by the fleas through the parafilm membrane.
# After 2 days, the kill in % is determined. 100% means that all of the fleas have been killed; 0% means that none of the fleas have been killed.
row,Compound,efficacy (kill in %)
1,Cn1nc(C(F)(F)C(F)(F)F)c(C(F)(F)F)c1-n1cc(-c2ccc(F)c(NC(=O)C3CCCC3)c2)cn1 [Example 1-077],100%
2,Cn1nc(C(F)(F)C(F)(F)F)c(C(F)(F)F)c1-n1cc(-c2ccc(F)c(NC(=O)c3cccc(C#N)c3)c2)cn1 [Example 1-075],100%
3,Cn1nc(C(F)(F)C(F)(F)F)c(C(F)(F)F)c1-n1cc(-c2cccc(NC(=O)C3CC3)c2)cn1 [Example 1-002],100%
4,Cc1cc(C(=O)Nc2cc(-c3cnn(-c4c(C(F)(F)F)c(C(F)(F)C(F)(F)F)nn4C)c3)ccc2F)ccc1F [Example 1-091],100%
5,Cn1nc(C(F)(F)C(F)(F)F)c(C(F)(F)F)c1-n1cc(-c2ccc(F)c(NC(=O)C3(Cl)CC3)c2)cn1 [Example 1-032],100%

# Test system: Phaedon cochleariae
# Assay: Phaedon cochleariae spray test
# Type: in vivo
# Conditions: application rate 100 g/ha; larvae; after 7 days
# Method: Phaedon cochleariae—Spray Test
# (§2) To produce an appropriate active ingredient formulation, 1 part by weight of active ingredient is dissolved using the specified parts by weight of solvent and made up with water containing an emulsifier concentration of 1000 ppm until the desired concentration is attained. To produce further test concentrations, the preparation is diluted with emulsifier-containing water.
# Discs of Chinese cabbage leaves (Brassica pekinensis) are sprayed with an active ingredient formulation of the desired concentration and, after drying, populated with larvae of the mustard beetle (Phaedon cochleariae).
# After 7 days, efficacy in % is determined. 100% means that all the beetle larvae have been killed; 0% means that no beetle larvae have been killed.
row,Compound,efficacy
1,Cn1nc(C(F)(F)C(F)(F)F)c(C(F)(F)F)c1-n1cc(-c2cccc(NC(=O)C3CC3)c2)cn1 [Example 1-002],100%
2,Cc1cc(C(=O)Nc2cc(-c3cnn(-c4c(C(F)(F)F)c(C(F)(F)C(F)(F)F)nn4C)c3)ccc2F)ccc1F [Example 1-091],100%

# Test system: Ctenocephalides felis
# Assay: Ctenocephalides felis in vitro contact test with adult cat fleas
# Type: in vivo
# Conditions: application rate 5 μg/cm^2 (500 g/ha); after 48 h; fleas dead or moribund
# Method: Ctenocephalides felis—In Vitro Contact Tests with Adult Cat Fleas
# (§3) For the coating of the test tubes, 9 mg of active ingredient are first dissolved in 1 ml of acetone p.a. and then diluted to the desired concentration with acetone p.a. 250 μl of the solution are distributed homogeneously on the inner walls and base of a 25 ml test tube by turning and rocking on an orbital shaker (rocking rotation at 30 rpm for 2 h). With 900 ppm active ingredient solution and internal surface 44.7 cm^2, given homogeneous distribution, an area-based dose of 5 μg/cm^2 is achieved.
# After the solvent has evaporated off, the tubes are populated with 5-10 adult cat fleas (Ctenocephalides felis), sealed with a perforated plastic lid and incubated in a horizontal position at room temperature and ambient humidity. After 48 h, efficacy is determined. To this end, the test tubes are stood upright and the fleas are knocked to the base of the tube. Fleas which remain motionless at the base or move in an uncoordinated manner are considered to be dead or moribund.
# 100% efficacy means that all the fleas were dead or moribund. 0% efficacy means that no fleas were harmed.
row,Compound,efficacy
1,Cc1cc(C(=O)Nc2cc(-c3cnn(-c4c(C(F)(F)F)c(C(F)(F)C(F)(F)F)nn4C)c3)ccc2F)ccc1F [Example 1-091],100%

# Test system: Spodoptera frugiperda
# Assay: Spodoptera frugiperda spray test
# Type: in vivo
# Conditions: application rate 100 g/ha; caterpillars; after 7 days
# Method: Spodoptera frugiperda—Spray Test
# as §2
# Leaf discs of maize (Zea mays) are sprayed with an active ingredient formulation of the desired concentration and, after drying, populated with caterpillars of the armyworm (Spodoptera frugiperda).
# After 7 days, efficacy in % is determined. 100% means that all the caterpillars have been killed; 0% means that no caterpillars have been killed.
row,Compound,efficacy
1,Cn1nc(C(F)(F)C(F)(F)F)c(C(F)(F)F)c1-n1cc(-c2cccc(NC(=O)C3CC3)c2)cn1 [Example 1-002],83%
2,Cc1cc(C(=O)Nc2cc(-c3cnn(-c4c(C(F)(F)F)c(C(F)(F)C(F)(F)F)nn4C)c3)ccc2F)ccc1F [Example 1-091],100%

# Test system: Boophilus microplus
# Assay: Boophilus microplus injection test
# Type: in vivo
# Conditions: application rate 20 μg/animal; injection into abdomen; assessed after 7 days
# Method: Boophilus microplus—Injection Test
# as §1
# To produce an appropriate active ingredient formulation, 10 mg of active ingredient are mixed with 0.5 ml of solvent and the concentrate is diluted with solvent to the desired concentration.
# 1 μl of the active ingredient solution is injected into the abdomen of 5 engorged adult female cattle ticks (Boophilus microplus). The animals are transferred into dishes and kept in a climate-controlled room.
# Efficacy is assessed after 7 days by laying of fertile eggs. Eggs which are not visibly fertile are stored in a climate-controlled cabinet until the larvae hatch after about 42 days. An efficacy of 100% means that none of the ticks has laid any fertile eggs; 0% means that all the eggs are fertile.
row,Compound,efficacy (laying of fertile eggs)
1,Cn1nc(C(F)(F)C(F)(F)F)c(C(F)(F)F)c1-n1cc(-c2ccc(F)c(NC(=O)C3CCCC3)c2)cn1 [Example 1-077],100%
2,Cn1nc(C(F)(F)C(F)(F)F)c(C(F)(F)F)c1-n1cc(-c2ccc(F)c(NC(=O)c3cccc(C#N)c3)c2)cn1 [Example 1-075],100%
3,Cn1nc(C(F)(F)C(F)(F)F)c(C(F)(F)F)c1-n1cc(-c2cccc(NC(=O)C3CC3)c2)cn1 [Example 1-002],100%
4,Cc1cc(C(=O)Nc2cc(-c3cnn(-c4c(C(F)(F)F)c(C(F)(F)C(F)(F)F)nn4C)c3)ccc2F)ccc1F [Example 1-091],100%
5,Cn1nc(C(F)(F)C(F)(F)F)c(C(F)(F)F)c1-n1cc(-c2ccc(F)c(NC(=O)C3(Cl)CC3)c2)cn1 [Example 1-032],100%

# Test system: Rhipicephalus sanguineus
# Assay: Rhipicephalus sanguineus in vitro contact test with adult brown dog ticks
# Type: in vivo
# Conditions: application rate 5 μg/cm^2 (500 g/ha); after 48 h; ticks dead or moribund
# Method: Rhipicephalus sanguineus—In Vitro Contact Tests with Adult Brown Dog Ticks
# as §3
# After the solvent has evaporated off, the tubes are populated with 5-10 adult dog ticks (Rhipicephalus sanguineus), sealed with a perforated plastic lid and incubated in a horizontal position in the dark at room temperature and ambient humidity. After 48 h, efficacy is determined. To this end, the ticks are knocked to the floor of the tube and incubated on a hotplate at 45-50° C. for not more than 5 min. Ticks which remain motionless on the floor or move in such an uncoordinated manner that they are unable to deliberately avoid the heat by climbing upwards are considered to be dead or moribund.
# An efficacy of 100% means that all the ticks were dead or moribund. 0% efficacy means that none of the ticks had been harmed.
row,Compound,efficacy
1,Cn1nc(C(F)(F)C(F)(F)F)c(C(F)(F)F)c1-n1cc(-c2ccc(F)c(NC(=O)C3CCCC3)c2)cn1 [Example 1-077],100%
2,Cn1nc(C(F)(F)C(F)(F)F)c(C(F)(F)F)c1-n1cc(-c2ccc(F)c(NC(=O)c3cccc(C#N)c3)c2)cn1 [Example 1-075],100%
3,Cn1nc(C(F)(F)C(F)(F)F)c(C(F)(F)F)c1-n1cc(-c2cccc(NC(=O)C3CC3)c2)cn1 [Example 1-002],100%
4,Cc1cc(C(=O)Nc2cc(-c3cnn(-c4c(C(F)(F)F)c(C(F)(F)C(F)(F)F)nn4C)c3)ccc2F)ccc1F [Example 1-091],100%
5,Cn1nc(C(F)(F)C(F)(F)F)c(C(F)(F)F)c1-n1cc(-c2ccc(F)c(NC(=O)C3(Cl)CC3)c2)cn1 [Example 1-032],100%

# Test system: Tetranychus urticae
# Assay: Tetranychus urticae spray test, OP-resistant
# Type: in vivo
# Conditions: application rate 100 g/ha; after 6 days
# Method: Tetranychus urticae—Spray Test, OP-Resistant
# as §2
# Discs of bean leaves (Phaseolus vulgaris) infested by all stages of the greenhouse red spider mite (Tetranychus urticae) are sprayed with an active ingredient formulation of the desired concentration.
# After 6 days, efficacy in % is determined. 100% means that all the spider mites have been killed; 0% means that none of the spider mites have been killed.
row,Compound,efficacy
1,Cc1cc(C(=O)Nc2cc(-c3cnn(-c4c(C(F)(F)F)c(C(F)(F)C(F)(F)F)nn4C)c3)ccc2F)ccc1F [Example 1-091],100%

# Test system: Musca domestica
# Assay: Musca domestica test
# Type: in vivo
# Conditions: application rate 100 ppm; adult houseflies; after 2 days
# Method: as §1
# (§4) To produce an appropriate active ingredient formulation, 10 mg of active ingredient are mixed with 0.5 ml of dimethyl sulphoxide, and the concentrate is diluted with water to the desired concentration.
# Vessels containing a sponge treated with sugar solution and the active ingredient formulation of the desired concentration are populated with 10 adult houseflies (Musca domestica).
# After 2 days, the kill in % is determined. 100% means that all of the flies have been killed; 0% means that none of the flies have been killed.
row,Compound,efficacy (kill in %)
1,Cn1nc(C(F)(F)C(F)(F)F)c(C(F)(F)F)c1-n1cc(-c2ccc(F)c(NC(=O)C3CCCC3)c2)cn1 [Example 1-077],100%
2,Cn1nc(C(F)(F)C(F)(F)F)c(C(F)(F)F)c1-n1cc(-c2ccc(F)c(NC(=O)c3cccc(C#N)c3)c2)cn1 [Example 1-075],100%
3,Cn1nc(C(F)(F)C(F)(F)F)c(C(F)(F)F)c1-n1cc(-c2cccc(NC(=O)C3CC3)c2)cn1 [Example 1-002],100%
4,Cn1nc(C(F)(F)C(F)(F)F)c(C(F)(F)F)c1-n1cc(-c2ccc(F)c(NC(=O)C3(Cl)CC3)c2)cn1 [Example 1-032],80%

# Test system: Lucilia cuprina
# Assay: Lucilia cuprina test
# Type: in vivo
# Conditions: application rate 100 ppm; L1 larvae; after 2 days
# Method: as §1, §4
# About 20 L1 larvae of the Australian sheep blowfly (Lucilia cuprina) are transferred into a test vessel containing minced horsemeat and the active ingredient preparation of the desired concentration.
# After 2 days, the kill in % is determined. 100% means that all the larvae have been killed and 0% means that none of the larvae have been killed.
row,Compound,efficacy (kill in %)
1,Cn1nc(C(F)(F)C(F)(F)F)c(C(F)(F)F)c1-n1cc(-c2ccc(F)c(NC(=O)C3CCCC3)c2)cn1 [Example 1-077],100%
2,Cn1nc(C(F)(F)C(F)(F)F)c(C(F)(F)F)c1-n1cc(-c2ccc(F)c(NC(=O)c3cccc(C#N)c3)c2)cn1 [Example 1-075],100%
3,Cn1nc(C(F)(F)C(F)(F)F)c(C(F)(F)F)c1-n1cc(-c2cccc(NC(=O)C3CC3)c2)cn1 [Example 1-002],100%
4,Cc1cc(C(=O)Nc2cc(-c3cnn(-c4c(C(F)(F)F)c(C(F)(F)C(F)(F)F)nn4C)c3)ccc2F)ccc1F [Example 1-091],100%
5,Cn1nc(C(F)(F)C(F)(F)F)c(C(F)(F)F)c1-n1cc(-c2ccc(F)c(NC(=O)C3(Cl)CC3)c2)cn1 [Example 1-032],100%

# Reference: US10273226B2, “Pyrazolyl-heteroarylamides as pesticides” (Bayer Animal Health GmbH, priority 2014, dated 2019)
